Assay [1] addresses Serine/threonine-protein kinase VRK2 (Homo sapiens) (UniProt Q86Y07). The experiment in a line: Inhibition of VRK2 (unknown origin) at 1 uM by Ambit Kinomescan binding assay relative to control.
Assay [2] deals with T1, Serine/threonine-protein kinase Nek9 (Homo sapiens) (UniProt Q8TD19).
T1 sequence (whole entry): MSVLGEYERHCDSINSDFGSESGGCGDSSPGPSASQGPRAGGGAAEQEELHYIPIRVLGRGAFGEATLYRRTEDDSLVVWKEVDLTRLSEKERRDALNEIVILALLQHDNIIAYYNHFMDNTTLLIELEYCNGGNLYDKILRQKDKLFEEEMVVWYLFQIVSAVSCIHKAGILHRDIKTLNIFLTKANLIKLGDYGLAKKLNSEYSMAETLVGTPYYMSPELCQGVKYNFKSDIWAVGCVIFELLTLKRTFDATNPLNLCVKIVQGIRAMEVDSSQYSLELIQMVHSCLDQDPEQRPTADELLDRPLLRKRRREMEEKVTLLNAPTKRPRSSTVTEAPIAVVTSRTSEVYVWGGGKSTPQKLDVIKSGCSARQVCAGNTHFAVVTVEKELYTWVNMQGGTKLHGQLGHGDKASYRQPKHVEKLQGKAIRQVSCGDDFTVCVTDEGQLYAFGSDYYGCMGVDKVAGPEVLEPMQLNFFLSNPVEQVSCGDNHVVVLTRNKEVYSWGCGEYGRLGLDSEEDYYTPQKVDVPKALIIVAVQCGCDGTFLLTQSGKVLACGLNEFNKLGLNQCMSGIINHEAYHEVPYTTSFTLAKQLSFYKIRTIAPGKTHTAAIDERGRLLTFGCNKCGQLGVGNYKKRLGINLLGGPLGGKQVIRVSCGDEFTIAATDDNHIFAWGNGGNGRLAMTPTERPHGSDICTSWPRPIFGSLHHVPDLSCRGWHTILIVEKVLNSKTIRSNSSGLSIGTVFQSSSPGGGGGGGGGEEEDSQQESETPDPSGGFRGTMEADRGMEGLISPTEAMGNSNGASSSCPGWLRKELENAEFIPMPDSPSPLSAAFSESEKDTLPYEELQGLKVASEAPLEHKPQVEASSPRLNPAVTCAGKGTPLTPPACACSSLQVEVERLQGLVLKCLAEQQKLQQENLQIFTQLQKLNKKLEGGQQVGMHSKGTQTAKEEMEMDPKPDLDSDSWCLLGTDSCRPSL
The experiment in a line: Inhibition of NEK9 Lys2 labeling site in human A-375 cells at 0.5 uM by KiNativ Profiling analysis relative to control. In kind it is cell-based.

The nature of assay [3]: Inhibition of […] K2 labeling site in human Huh-7 cells at 1 uM by KiNativ Profiling analysis relative to control. The following applies: condition cancer.
Assay [4] concerns the target T2, Mitogen-activated protein kinase kinase kinase 6 (Homo sapiens) (UniProt O95382).
T2 sequence (whole entry): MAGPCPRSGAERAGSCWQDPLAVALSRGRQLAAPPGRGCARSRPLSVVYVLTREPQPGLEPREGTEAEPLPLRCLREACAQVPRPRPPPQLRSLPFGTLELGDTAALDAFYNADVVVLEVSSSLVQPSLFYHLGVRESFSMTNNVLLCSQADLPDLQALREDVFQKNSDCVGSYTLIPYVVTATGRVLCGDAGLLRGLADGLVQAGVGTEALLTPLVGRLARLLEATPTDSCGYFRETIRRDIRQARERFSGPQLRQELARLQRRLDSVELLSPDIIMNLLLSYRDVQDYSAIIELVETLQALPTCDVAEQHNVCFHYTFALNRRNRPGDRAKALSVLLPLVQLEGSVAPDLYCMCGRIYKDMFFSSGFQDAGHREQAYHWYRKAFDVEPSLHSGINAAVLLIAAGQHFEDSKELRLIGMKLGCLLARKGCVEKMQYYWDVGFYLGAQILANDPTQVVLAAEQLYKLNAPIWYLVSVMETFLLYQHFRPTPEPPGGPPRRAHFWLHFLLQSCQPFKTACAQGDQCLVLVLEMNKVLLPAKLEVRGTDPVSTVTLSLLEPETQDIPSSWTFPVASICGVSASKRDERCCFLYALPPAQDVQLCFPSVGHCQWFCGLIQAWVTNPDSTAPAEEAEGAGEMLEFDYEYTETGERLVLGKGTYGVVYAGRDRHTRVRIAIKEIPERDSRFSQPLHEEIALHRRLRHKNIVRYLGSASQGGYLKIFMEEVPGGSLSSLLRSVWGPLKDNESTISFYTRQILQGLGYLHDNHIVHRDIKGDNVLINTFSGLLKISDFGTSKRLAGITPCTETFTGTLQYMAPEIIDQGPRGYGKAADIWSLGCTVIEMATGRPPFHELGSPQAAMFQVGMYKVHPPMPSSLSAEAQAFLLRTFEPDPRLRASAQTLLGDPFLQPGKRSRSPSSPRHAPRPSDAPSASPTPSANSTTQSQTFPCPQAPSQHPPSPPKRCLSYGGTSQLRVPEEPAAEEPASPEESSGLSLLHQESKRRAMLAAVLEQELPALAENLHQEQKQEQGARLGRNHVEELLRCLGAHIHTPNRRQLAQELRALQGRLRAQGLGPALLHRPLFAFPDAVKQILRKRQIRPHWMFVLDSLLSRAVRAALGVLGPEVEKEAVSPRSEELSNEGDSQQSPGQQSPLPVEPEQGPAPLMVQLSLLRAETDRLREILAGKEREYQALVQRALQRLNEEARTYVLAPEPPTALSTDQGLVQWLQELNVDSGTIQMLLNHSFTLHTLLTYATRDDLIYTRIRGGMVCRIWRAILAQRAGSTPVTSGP
The experiment in a line: Inhibition of MAP3K6 Lys1 labeling site harbouring IAIKEIPERDSR in human A-375 cells at 5 uM by KiNativ Profiling analysis relative to control. Type of assay: cell-based.

Assay [5] concerns the target Cyclin-dependent kinase 20 (Homo sapiens) (UniProt Q8IZL9). In words: Inhibition of CCRK Lys2 labeling site in human A-375 cells at 5 uM by KiNativ Profiling analysis relative to control. Type of assay: cell-based.

Serine/threonine-protein kinase VRK2 (Homo sapiens), sequence (Q86Y07 whole entry): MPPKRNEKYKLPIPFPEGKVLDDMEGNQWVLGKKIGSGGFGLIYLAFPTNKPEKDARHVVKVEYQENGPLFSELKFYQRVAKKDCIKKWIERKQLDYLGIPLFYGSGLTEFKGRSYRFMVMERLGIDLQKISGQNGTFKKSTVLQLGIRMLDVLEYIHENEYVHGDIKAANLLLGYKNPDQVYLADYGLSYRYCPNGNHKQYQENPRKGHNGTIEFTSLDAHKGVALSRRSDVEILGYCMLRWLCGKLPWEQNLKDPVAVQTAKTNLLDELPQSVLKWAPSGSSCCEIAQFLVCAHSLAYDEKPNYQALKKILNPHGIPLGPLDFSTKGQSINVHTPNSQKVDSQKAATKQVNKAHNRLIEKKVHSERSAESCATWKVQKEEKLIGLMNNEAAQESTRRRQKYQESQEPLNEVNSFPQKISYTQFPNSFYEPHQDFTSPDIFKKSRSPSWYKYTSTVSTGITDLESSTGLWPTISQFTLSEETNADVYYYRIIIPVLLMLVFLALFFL
Cyclin-dependent kinase 20 (Homo sapiens), sequence (Q8IZL9 whole entry): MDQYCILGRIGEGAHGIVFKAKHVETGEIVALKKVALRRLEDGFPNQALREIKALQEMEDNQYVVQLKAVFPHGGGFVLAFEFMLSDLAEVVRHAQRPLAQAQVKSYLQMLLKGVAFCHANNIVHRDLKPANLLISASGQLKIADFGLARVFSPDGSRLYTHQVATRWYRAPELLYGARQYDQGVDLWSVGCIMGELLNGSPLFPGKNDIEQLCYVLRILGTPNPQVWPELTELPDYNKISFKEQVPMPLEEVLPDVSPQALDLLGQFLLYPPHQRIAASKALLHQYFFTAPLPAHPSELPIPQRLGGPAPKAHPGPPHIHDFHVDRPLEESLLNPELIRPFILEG

Usually inhibition stands for the relative decrease from the control value, in per cent. For the compound `CCN1CCN(Cc2ccc(NC(=O)c3ccc(C)c(/C=C/c4cnc5[nH]ccc5c4OC)c3)cc2C(F)(F)F)CC1`, the inhibition was determined as 100% in assay [1] and 10.4% in assay [2].
As for `CCN1CCN(Cc2ccc(NC(=O)c3ccc(C)c(Oc4ccnc5[nH]ccc45)c3)cc2C(F)(F)F)CC1`, the inhibition at 1 µM in assay [3] was -16%. Further, the inhibition in assay [4] is -3.2%; in assay [5] it was 4.5%.

The record behind these values is ChEMBL document CHEMBL5696442, “Discovery of type II inhibitors of TGFβ-activated kinase 1 (TAK1) and mitogen-activated protein kinase kinase kinase kinase 2 (MAP4K2)” (J Med Chem, 2015).
